Laboratory results taken from US7183276B2, “Azole compounds” (Takeda Pharmaceutical Company Limited, priority 2002, dated 2007).

Compound | melting point
NC(=O)CCc1oc(-c2ccc3ccccc3c2)nc1-c1ccc(Cl)cc1 [Example 24, 3-[4-(4-chlorophenyl)-2-(2-naphthyl)-5-oxazolyl]propionamide] | 206 to 207 °C
CCOC(=O)c1ccc(NC(=O)/C=C/c2oc(-c3ccccc3)nc2-c2ccc(Cl)cc2)cc1 [Example 56, (2E)-3-[4-(4-chlorophenyl)-2-phenyl-5-oxazolyl]-N-[4-(ethoxycarbonyl)phenyl]propenamide] | 135 to 140 °C
NC(=O)CCc1sc(-c2ccccc2)nc1-c1ccc(Cl)cc1 [Example 46, 3-[4-(4-chlorophenyl)-2-phenyl-5-thiazolyl]propionamide] | 175 to 176 °C
CCOP(=O)(Cc1ccc(NC(=O)CCc2oc(C)nc2-c2ccc(Cl)cc2)cc1)OCC | 155 to 156 °C
CCS(=O)(=O)CCNC(=O)CCc1oc(-n2cnc3ccccc32)nc1-c1ccc(Cl)cc1 [Example 301, 3-[2-(1H-benzoimidazol-1-yl)-4-(4-chlorophenyl)-5-oxazolyl]-N-[2-(ethylsulfonyl)ethyl]propanamide] | 182 to 183 °C
O=C(CCc1oc(-n2cnc3ccccc32)nc1-c1ccc(Cl)cc1)N1CCC(CO)CC1 [Example 305, (1-{3-[2-(1H-benzoimidazol-1-yl)-4-(4-chlorophenyl)-5-oxazolyl]propanoyl}-4-piperidinyl)methanol] | 101 to 102 °C
CCOP(=O)(Cc1ccc(NC(=O)CCc2sc(NC(=O)c3ccccc3)nc2-c2ccc(Cl)cc2)cc1)OCC | 171 to 172 °C
CCNC(=O)CCCc1oc(-c2ccccc2)nc1-c1ccc(Cl)cc1 [Example 49, N-ethyl-4-[4-(4-chlorophenyl)-2-phenyl-5-oxazolyl]butanamide] | 127 to 128 °C
O=C(CCc1oc(-n2cnc3ccccc32)nc1-c1ccc(Cl)cc1)N1CCS(=O)(=O)CC1 [Example 194, 4-{3-[2-(1H-benzimidazol-1-yl)-4-(4-chlorophenyl)-5-oxazolyl]propanoyl}thiomorpholine-1,1-dioxide] | 227 to 228 °C
CN(CCS(C)(=O)=O)C(=O)CCc1oc(-n2cnc3ccccc32)nc1-c1ccc(Cl)cc1 [Example 303, 3-[2-(1H-benzoimidazol-1-yl)-4-(4-chlorophenyl)-5-oxazolyl]-N-[2-(methylsulfonyl)ethyl]-N-methylpropanamide] | 141 to 142 °C
CCOP(=O)(Cc1ccc(NC(=O)CCc2oc(-c3ccc4ccccc4c3)nc2-c2ccc(Cl)cc2)cc1)OCC | 191 to 192 °C
COc1ccc(-c2nc(-n3cnc4ccccc43)oc2CCC(=O)N2CCN(CC3CCCN(C)C3)CC2)cc1 (stereo not drawn) [Example 252, 1-{3-[2-(1H-benzoimidazol-1-yl)-4-(4-methoxyphenyl)-5-oxazolyl]propanoyl}-4-[(1-methylpiperidin-3-yl)methyl]piperazine] | 151 to 152 °C
CCOP(=O)(Cc1ccc(NC(=O)CCCCc2sc(-n3cnc4ccccc43)nc2-c2ccc(Cl)cc2)cc1)OCC | 168 to 169 °C
CCOP(=O)(Cc1ccc(NC(=O)CCc2sc(NC(=O)Nc3ccccc3)nc2-c2ccc(Cl)cc2)cc1)OCC | 175 to 176 °C
CS(=O)(=O)C1CCN(C(=O)CCc2oc(-n3cnc4ccccc43)nc2-c2ccc(Cl)cc2)CC1 [Example 307, 1-{3-[2-(1H-benzoimidazol-1-yl)-4-(4-chlorophenyl)-5-oxazolyl]propanoyl}-4-(methylsulfonyl)piperidine] | 215 to 216 °C
CCOP(=O)(Cc1ccccc1NC(=O)CCCc1oc(-n2cnc3ccccc32)nc1-c1ccc(Cl)cc1)OCC | 133 to 136 °C
NC(=O)CCc1oc(N2CCN(c3ccccc3)CC2)nc1-c1ccc(Cl)cc1 [Example 31, 3-[4-(4-chlorophenyl)-2-(4-phenyl-1-piperazinyl)-5-oxazolyl]propionamide] | 187 to 188 °C
Cc1nc(-c2ccc(Cl)cc2)c(CCC(=O)N2CCS(=O)(=O)CC2)o1 [Example 241, 4-{3-[4-(4-chlorophenyl)-2-methyl-5-oxazolyl]propanoyl}thiomorpholine-1,1-dioxide] | 124 to 125 °C
O=C(/C=C/c1oc(-c2ccccc2)nc1-c1ccc(Cl)cc1)Nc1ccc(C(=O)O)cc1 [Example 65, 4-({(2E)-3-[4-(4-chlorophenyl)-2-phenyl-5-oxazolyl]propenoyl}amino)benzoic acid] | 275 to 276 °C
NC(=O)c1ccc(NC(=O)CCc2oc(-c3ccccc3)nc2-c2ccc(Cl)cc2)cc1 [Example 66, 4-({3-[4-(4-chlorophenyl)-2-phenyl-5-oxazolyl]propanoyl}amino)benzamide] | 268 to 269 °C
CCOP(=O)(Cc1ccc(NC(=O)CCc2sc(NC(=S)NC(=O)c3ccccc3)nc2-c2ccc(Cl)cc2)cc1)OCC | 208 to 209 °C
CCOP(=O)(Cc1ccc(NC(=O)CCc2oc(Sc3ccccn3)nc2-c2ccc(Cl)cc2)cc1)OCC | 146 to 147 °C
CCOP(=O)(Cc1ccc(NC(=O)/C=C/c2sc(-n3cnc4ccccc43)nc2C(C)(C)C)cc1)OCC | 211 to 212 °C
O=C(CCc1oc(-n2cnc3ccccc32)nc1-c1ccc(Cl)cc1)N1CCSC1 [Example 259, 3-{3-[2-(1H-benzoimidazol-1-yl)-4-(4-chlorophenyl)-5-oxazolyl]propanoyl}thiazolidine] | 125 to 126 °C
O=C(CCc1oc(-n2cnc3ccccc32)nc1-c1ccc(Cl)cc1)N1CCC(O)CC1 [Example 192, 1-{3-[2-(1H-benzimidazol-1-yl)-4-(4-chlorophenyl)-5-oxazolyl]propanoyl}-4-piperidinol] | 182 to 183 °C
CCOP(=O)(Cc1ccc(NC(=O)CCCCCc2sc(-n3cnc4ccccc43)nc2-c2ccc(Cl)cc2)cc1)OCC | 149 to 151 °C

Continued, values first:

melting point | Compound
258 to 259 °C | COc1ccccc1NC(=O)Cc1ccc(NC(=O)CCc2oc(-n3cnc4ccccc43)nc2-c2ccc(Cl)cc2)cc1 [Example 139, 2-[4-(N-{3-[2-(1H-benzimidazol-1-yl)-4-(4-chlorophenyl)-5-oxazolyl]propanoyl}amino)phenyl]-N-(2-methoxyphenyl)acetamide]
194 to 195 °C | COc1ccccc1NC(=O)CCc1oc(-n2cnc3ccccc32)nc1-c1ccc(Cl)cc1 [Example 115, 3-[2-(1H-benzimidazol-1-yl)-4-(4-chlorophenyl)-5-oxazolyl]-N-(2-methoxyphenyl)propionamide]
152 to 155 °C | CCOP(=O)(OCC)C(F)c1ccc(NC(=O)CCc2oc(-n3cnc4ccccc43)nc2-c2ccc(Cl)cc2)cc1 (stereo not drawn)
157 to 158 °C | O=C(CCc1oc(-n2cnc3ccccc32)nc1-c1ccc(Cl)cc1)NCc1ccccn1 [Example 154, 3-[2-(1H-benzimidazol-1-yl)-4-(4-chlorophenyl)-5-oxazolyl]-N-(2-pyridinylmethyl)propionamide]
205 to 206 °C | O=C(CCc1oc(-n2cnc3ccccc32)nc1-c1ccc(Cl)cc1)NCc1ccccc1 [Example 132, 3-[2-(1H-benzimidazol-1-yl)-4-(4-chlorophenyl)-5-oxazolyl]-N-benzylpropionamide]
190 to 191 °C | O=C(CCc1oc(-n2cnc3ccccc32)nc1-c1ccc(Cl)cc1)NCc1ccc(Cl)c(Cl)c1 [Example 147, 3-[2-(1H-benzimidazol-1-yl)-4-(4-chlorophenyl)-5-oxazolyl]-N-(3,4-dichlorobenzyl)propionamide]
190 to 191 °C | O=C(CCc1oc(-n2cnc3ccccc32)nc1-c1ccc(Cl)cc1)NCc1ccc(Cl)cc1 [Example 152, 3-[2-(1H-benzimidazol-1-yl)-4-(4-chlorophenyl)-5-oxazolyl]-N-(4-chlorobenzyl)propionamide]
228 to 229 °C | COc1cc(NC(=O)CCc2oc(-n3cnc4ccccc43)nc2-c2ccc(Cl)cc2)cc(OC)c1OC [Example 127, 3-[2-(1H-benzimidazol-1-yl)-4-(4-chlorophenyl)-5-oxazolyl]-N-(3,4,5-trimethoxyphenyl)propionamide]
265 to 266 °C | NC(=O)CCc1oc(-n2cnc3ccccc32)nc1-c1ccc(Cl)cc1 [Example 8, 3-[2-(1H-benzimidazol-1-yl)-4-(4-chlorophenyl)-5-oxazolyl]propionamide]
235 to 236 °C | N#CCc1ccccc1NC(=O)CCc1oc(-n2cnc3ccccc32)nc1-c1ccc(Cl)cc1 [Example 111, 3-[2-(1H-benzimidazol-1-yl)-4-(4-chlorophenyl)-5-oxazolyl]-N-[2-(cyanomethyl)phenyl]propionamide]
155 to 156 °C | O=C(CCc1oc(-n2cnc3ccccc32)nc1-c1ccc(Cl)cc1)NCc1cc(F)cc(F)c1 [Example 164, 3-[2-(1H-benzimidazol-1-yl)-4-(4-chlorophenyl)-5-oxazolyl]-N-(3,5-difluorobenzyl)propionamide]
221 to 222 °C | O=C(CCc1oc(-n2cnc3ccccc32)nc1-c1ccc(Cl)cc1)Nc1ccc(F)cc1 [Example 128, 3-[2-(1H-benzimidazol-1-yl)-4-(4-chlorophenyl)-5-oxazolyl]-N-(4-fluorophenyl)propionamide]
248 to 249 °C | O=C(CCc1oc(-n2cnc3ccccc32)nc1-c1ccc(Cl)cc1)Nc1ccc(Cl)cc1 [Example 79, 3-[2-(1H-benzimidazol-1-yl)-4-(4-chlorophenyl)-5-oxazolyl]-N-(4-chlorophenyl)propionamide]
212 to 214 °C | N#CCc1ccc(NC(=O)CCc2oc(-n3cnc4ccccc43)nc2-c2ccc(Cl)cc2)cc1 [Example 89, 3-[2-(1H-benzimidazol-1-yl)-4-(4-chlorophenyl)-5-oxazolyl]-N-[4-(cyanomethyl)phenyl]propionamide]
276 to 277 °C | CSc1ccc(NC(=O)CCc2oc(-n3cnc4ccccc43)nc2-c2ccc(Cl)cc2)cc1 [Example 96, 3-[2-(1H-benzimidazol-1-yl)-4-(4-chlorophenyl)-5-oxazolyl]-N-{4-(methylsulfanyl)phenyl}propionamide]
225 to 226 °C | O=C(CCc1oc(-n2cnc3ccccc32)nc1-c1ccc(Cl)cc1)NCc1c(F)cccc1F [Example 156, 3-[2-(1H-benzimidazol-1-yl)-4-(4-chlorophenyl)-5-oxazolyl]-N-(2,6-difluorobenzyl)propionamide]
